Patent US11160790B2, “Method of inhibiting Cryptococcus growth using eltrombopag” (priority 2019, dated 2021)

Assays:
[1] = tested on: C. neoformans H99; assay: Capsule size assay (India ink); type: cell-based, Cryptococcus neoformans; conditions: 0.06 mg/L, 37° C., 48 hours, versus no eltrombopag treatment
Experimental: (§1) Cryptococcus and Candida species were cultured in yeast extract-peptone-dextrose (YPD) medium (containing 1% yeast extract, 2% peptone, 2% glucose, and optionally 2% agar for preparation of an agar plate). Aspergillus, Fusarium, and Trichophyton species were cultured on potato dextrose agar (PDA) plate (containing 2% potato infusion, […], and 1.5% agar). A microdilution assay was performed to determine minimum inhibitory concentration (MIC), minimum fungicidal concentration (MFC), and fractional inhibitory concentration (FIC) index (FICI) using RPMI 1640 medium buffered with MOPS. Minimal medium (containing 15 mM glucose, 10 mM magnesium sulfate, 29.4 mM potassium dihydrogen phosphate, 13 mM glycine, and 3 μM thiamine hydrochloride; pH 5.5) was used for capsule size assay and melanization assay.
(§2) Cryptococcus capsule, the structure attached to the outer surface of the cell wall and mainly composed of polysaccharides, can increase the resistance of Cryptococcus to host immune response (such as phagocytosis by macrophages) and harsh conditions (such as extreme acidity or alkalinity, high CO2 levels, or iron deprivation). To test whether eltrombopag affects capsule formation in Cryptococcus, C. neoformans H99 and C. deuterogattii R265 cells were cultured overnight in YPD media at 30° C. […] Statistical significance for the data sets was determined using a two-tailed t test.

[2] = tested on: C. neoformans H99; assay: Growth kinetics in RPMI 1640 (cell density); type: cell-based, Cryptococcus neoformans
Experimental: To study the inhibitory effects of eltrombopag on the growth of Cryptococcus, C. neoformans H99 cells were cultured overnight at 30° C. and then washed twice with double-distilled water. The cells were diluted to 0.0005 OD600/mL with RPMI 1640 medium, and 5 mL of the cell suspension was treated with eltrombopag at 0.5, 0.25, 0.125, 0.06, or 0 mg/L and incubated at 37° C. with shaking at 150 rpm for 4 days. The cell density of the suspensions was measured every 12 hours with a SpectraMax190 microplate reader (Molecular Devices), and growth curves were plotted using Prism 5.03 (GraphPad Software, San Diego, Calif., USA). The experiments were performed in triplicate, and the results were presented as mean±standard deviation.

[3] = tested on: C. deuterogattii R265; assay: Capsule size assay (India ink); type: cell-based, Cryptococcus deuterogattii; conditions: 0.06 mg/L, 37° C., 48 hours, versus no eltrombopag treatment
Experimental: as §1, §2

[4] = tested on: C. neoformans H99; assay: Checkerboard titration assay; type: cell-based, Cryptococcus neoformans; conditions: 30° C., 48 hours
Experimental: (§3) Amphotericin B plus 5-flucytosine or fluconazole are combinations often used to treat cryptococcal meningitis. To investigate the synergy between eltrombopag and existing antifungal drugs or other drugs, a checkerboard titration assay was performed on Cryptococcus. Briefly, C. neoformans […] and C. deuterogattii […] cells were cultured overnight at 30° C. and then washed twice with double-distilled water. The cells were diluted to 10^3 cfu/mL with RPMI 1640 medium, and 100 μL of the cell suspension was added to each well of a 96-well polystyrene plate. […] After incubation at 30° C. for 48 hours, the growth of cells under different treatments was assessed by measuring the light absorbance at 600 nm (OD600). This assay allows the determination of fractional inhibitory concentration index (FICI): (MICcombined of drug A/MICalone of drug A)+(MICcombined of drug B/MICalone of drug B). After the checkerboard titration assay, the cells (3 μL) in the 96-well plate were transferred to drug-free YPD agar plates. After incubation at 30° C. for 48 hours, the agar plates were photographed and assessed for cell viability.

[5] = tested on: C. deuterogattii R265; assay: Checkerboard titration assay; type: cell-based, Cryptococcus deuterogattii; conditions: 30° C., 48 hours
Experimental: as §3

[6] = tested on: most Candida species; assay: Microdilution assay, summary for Candida species; type: cell-based
Experimental: as §1, with “Minimal medium (containing 15 mM glucose, 10 mM magnesium sulfate, 29.4 mM potassium dihydrogen phosphate, 13 mM glycine, and 3 μM thiamine hydrochloride; pH 5.5) was used for capsule size assay and melanization assay.” left out
To investigate the inhibitory effects of eltrombopag on the growth of fungi, microdilution assays (based on the CLSI standards M27-A3 and M38-A2) were performed with multiple pathogenic yeasts and filamentous fungi including Cryptococcus, Candida, Aspergillus, Fusarium, and Trichophyton (TABLE 1). […] Thereafter, 3 μL of the fungal culture from each well of the 96-well plates was spotted onto eltrombopag-free YPD (for yeasts) or PDA (for filamentous fungi) agar plates, which were then incubated at 35° C. for 48 hours to examine colony formation Minimum fungicidal concentration (MFC) was determined to be the lowest drug concentration at which no colonies formed. […]

[7] = tested on: C. deuterogattii 8265; assay: Disk diffusion susceptibility assay; type: cell-based, Cryptococcus deuterogattii; conditions: 10 μg per disk; 25° C., 30° C. or 37° C., 48 hours
Experimental: A disk diffusion susceptibility assay was performed to further investigate the fungistatic activity of eltrombopag at different temperatures. Briefly, C. neoformans […] or C. deuterogattii 8265 was cultured overnight at 30° C., and 100 μL of the culture (at an OD600 of about 0.1) was spread on RPMI 1640 agar plates. Paper disks (with a diameter of 6 mm) were then placed on these agar plates, and either 10 μg eltrombopag (dissolved in 5 μL DMSO) or 5 μL DMSO (control) was added to each disk. The agar plates were incubated at 25° C., 30° C., or 37° C. for 48 hours and photographed.

## CC1=NN(c2ccc(C)c(C)c2)C(=O)/C1=N\Nc1cccc(-c2cccc(C(=O)O)c2)c1O [eltrombopag]
[1]
  capsule size: capsule size significantly reduced
[2]; 0.06 mg/L
  growth kinetics (cell density): did not affect the growth kinetics
[2]; 0.25 mg/L or 0.5 mg/L, 37° C., 96 hours
  growth kinetics (cell density): static growth of C. neoformans was maintained
[2]; 0.5, 0.25, 0.125, 0.06 mg/L, 37° C., 4 days
  growth kinetics (cell density): inhibited the growth of C. neoformans in a dose-dependent manner
[3]
  capsule size: capsule size significantly reduced
[4]
  MICalone: 0.25 mg/L
[4]; ETP in combination with AMB
  MICcombined of ETP: 0.03 mg/L
[4]; ETP in combination with CsA
  MICcombined of ETP: 0.25 mg/L
[4]; ETP in combination with FK506
  MICcombined of ETP: 0.015 mg/L
[4]; ETP in combination with FLC
  MICcombined of ETP: 0.03 mg/L
[5]
  MICalone: 0.5 mg/L
[5]; ETP in combination with AMB
  MICcombined of ETP: 0.03 mg/L
[5]; ETP in combination with CsA
  MICcombined of ETP: 1 mg/L
[5]; ETP in combination with FK506
  MICcombined of ETP: 0.015 mg/L
[5]; ETP in combination with FLC
  MICcombined of ETP: 0.03 mg/L
[6]
  MIC: ≥ 64 mg/1
[7]
  inhibition zones: significantly larger inhibition zones were observed at 37 °C
